Reference: paper PMC11732987, “Enantioselective OTUD7B fragment discovery through chemoproteomics screening and high-throughput optimisation” (Communications Chemistry, 2025)

Experiments:
OTUD7B [1] = molecular target: T1, OTUD7B (Homo sapiens, UniProt Q6GQQ9); assay: Ub-Rho110Gly DUB activity assay; also intact protein LC-MS kinetics (kinact/KI […] ^-1 s^-1), lysate ABPP (TE50 […]); format: biochemical; design: OTUD7B aa129-438 (intact protein LC-MS)
T1 sequence (Q6GQQ9 129-438): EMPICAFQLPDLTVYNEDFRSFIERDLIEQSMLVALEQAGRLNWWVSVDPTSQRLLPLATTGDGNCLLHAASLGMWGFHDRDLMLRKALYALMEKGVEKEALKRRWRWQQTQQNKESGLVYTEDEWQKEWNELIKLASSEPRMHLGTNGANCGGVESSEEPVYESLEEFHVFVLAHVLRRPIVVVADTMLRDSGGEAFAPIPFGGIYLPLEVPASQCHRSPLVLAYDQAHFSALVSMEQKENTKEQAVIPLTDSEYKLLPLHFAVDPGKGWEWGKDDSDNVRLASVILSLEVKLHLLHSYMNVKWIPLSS

OTUD7B [2] = molecular target: T1, OTUD7B; assay: Ub-Rho110Gly DUB activity assay; also intact protein LC-MS kinetics (kinact/KI […] ^-1 s^-1), SiteID LC-MS/MS, lysate ABPP (TE50 […]); format: biochemical; design: OTU domain; OTUD7B aa129-438 (intact protein LC-MS), aa129–538 (SiteID)

Row | IC50 (OTUD7B [1]) [µM] | IC50 (OTUD7B [2]) [µM] | SMILES
1 | 58.3 | – | O=C(CCl)N[C@@H]1CCCc2ccccc21 [compound 30]
2 | – | 3.5 | O=C(CCl)N[C@H]1CCCc2ccccc21 [compound 29]
